The nature of data set [1]: Hepatocyte metabolic stability assay. The format is in vitro ADME. The following applies: 5 species of hepatocytes (mouse, rat, dog, monkey, human); FIG. 4A. An excerpt:
The compounds of the invention were similarly tested for hepatocyte metabolic stability in 5 species (mouse, rat, dog, monkey, human) according to standard methods of in vitro metabolic stability studies conventional in the art, for example (Kems, Edward H. and Di Li (2008). Drug-like Properties: Concepts, Structure Design and Methods: From ADME to Toxicity Optimization, San Diego: Academic Press; Di, Li et al, Optimization of a High Throughput Microsomal Stability Screening Assay for Profiling Drug Discovery Candidates, J Biomol Screen. 2003, 8(4), 453).
The hepatocytes used in the experiment: human hepatocytes (SHQY, Lot #HEP190006), dog hepatocytes (IVT, Lot #ZMB); monkey hepatocytes (Xenotech, Lot #2010022), rat hepatocytes (SHQY, Lot #HEP134045), and mouse hepatocytes (BioIVT, Cat. #M005052, Lot. #MEO).
Cryopreserved hepatocyte tubes were removed from a liquid nitrogen tank and immediately placed ill in a shaking water bath at 37±1° C. for 2 minutes±15 seconds. […] The supernatant was aspirated without touching the cell pellet, and cell viability and number were determined. The hepatocytes were counted and then the cell suspension was diluted in KHB buffer to the appropriate density (viable cell density=2×10^6 cells/mL). […]

Data set [2] relates to CT26 cells. Put plainly: Immunological memory function in CT26 transplantation tumor model, syngeneic or nude mouse (re-inoculation). As to conditions: for Average tumor volume after re-inoculation of CT26 cells: immunocompetent BALB/c mice. The format is in vivo, BALB/c immune-competent or nude mice. The method, then: BALB/c immune-competent or nude mice of 6-8 weeks (purchased from Shanghai Ling Chang Biotech Co., Ltd.) were inoculated with 5×10^5 CT26 cells (supplied by Taicang Zexin Biotechnology Co., Ltd., ATCC #CRL-2638) subcutaneously on the right back dorsal, respectively, and the inoculation volume was 0.1 mL. When tumors grew to an average volume of 100 mm^3, they were randomized according to tumor size and mouse body weight and dosed. The day of the first dose was Day 0. Two doses were administered on Day 0 and Day 4, with 50 μg of compound/mouse (i.e., 2.5 mg/kg) injected intratumorally, with the same volume of PBS (Hyclone, Cat #SH30258.01) as a control. Mice in the nude or BALB/c mice groups were sacrificed on Day 9 or Day 13 post-dosing, respectively. On Day 21 post-dosing, mice were inoculated again subcutaneously on the left back dorsal with 5×10^5 CT26 cells in a volume of 0.1 mL. Blank BALB/c or nude mice without any treatment were also inoculated as controls. During the experiment, tumor volumes and the body weights were measured 3 times per week, and the tumor volume was calculated as V=D×d×d/2 (Ibid).

Counter-ions that a name gives are not always drawn.

`Nc1nc2c(ncn2[C@@H]2O[C@@H]3CO[P@@](=O)(S)OC4C(F)[C@H](n5cnc6c(N)nc(Cl)nc65)O[C@@H]4CO[P@@](=O)(S)OC2C3O)c(=O)[nH]1` (stereo partly drawn) [Example 10, (2′,3′)-cyclo-(Rp,Rp)-[2′-O-phosphorothioate-diester-guanosine]-[3′-O-phosphorothioate-diester-2-chloro-2′-deoxy-2′-fluoro-beta-adenosine] diammonium salt]: the “Hepatocyte metabolic stability (in words)” value in data set [1] is “good metabolic stability”. The “CT26 tumor growth inhibition in immunocompetent and immunodeficient mice (in words)” value in data set [2] (50 μg/mouse intratumorally, Day 0 and Day 4) is “significantly inhibited CT26 tumor growth in both immunocompetent and immunodeficient mice”. Moreover, the “Tumor status in treated immunocompetent mice” value in data set [2] (Day 5 post-dosing) is listed as “the tumors completely disappeared”. Moreover, the “Average tumor volume after re-inoculation of CT26 cells” value is 101 mm^3 in data set [2] (re-inoculated Day 21, end of experiment Day 33) and 29 mm^3 in data set [2] (re-inoculated Day 21, measured Day 30). Further, the “Immunological memory in immunocompetent mice” value in data set [2] (re-inoculated CT26 cells) was “developed an immunological memory”. Also, in data set [2] (re-inoculated CT26 cells Day 21), the “Immunological memory in immunodeficient nude mice” value is “no immunological memory has been generated”.
